Target: T1, KRAS G12C (GMPPNP-loaded) and cRAF Ras-binding domain (Homo sapiens, UniProt P01116, C118S/C51S/C80L/G12C)
T1 construct: truncated version comprising amino acids 1-169
Assay: Inhibition of KRAS G12C and cRAF binding (AlphaScreen)
Details: KRAS G12C preloaded with GTP analogue GMPPNP, 2 hours preincubation
Excerpt: The ability of compounds of Formula (A), Formula (B) and Formula (C), and pharmaceutically acceptable salts and/or isotopologues thereof, to inhibit activity of the GTP-bound form of KRAS G12C can be tested using methods such as the in vitro assay described in Example 179 below. Example 179 describes determining, for various compounds, the half-maximal inhibition (IC50) of KRAS G12C loaded with GTP analogue GMPPNP from binding to cRaf, as the Ras-binding domain (RBD). Example 180 describes determining, for various compounds, the half-maximal inhibition (IC50) of KRAS G12C loaded with GTP analogue GMPPNP from binding to PI3Kα, as the Ras-binding domain (RBD). Example 181 describes testing compounds for the ability to inhibit cell viability in MCF10A G12C/A59G mutant, which abrogates GTPase activity, thus preventing hydrolysis of GTP to GDP.
The AlphaScreen technology was used to determine IC50s for compound inhibition of KRAS G12C (present as the Cys-light (C51S, C80L and C118S), truncated version comprising amino acids 1-169) and cRAF interaction. Compounds were diluted in 100% DMSO and each compound concentration was spotted at 200 nl/well onto low volume, white 384 well plates. The KRAS G12C contained a biotin-AviTag and the cRaf, as Ras-binding domain (amino acids 50-131, RBD), was GST-tagged. KRAS G12C was preloaded with the GTP analogue Guanosine 5′-[β,γ-imido]triphosphate (GMPPNP). The KRAS G12C was diluted in 25 mM Hepes, pH 7.4, 150 mM NaCl, 5 mM MgCl2, 0.01% TritonX-100 and 10 μM GMPPNP and added at 10 ul/well to compound-spotted plates resulting in a DMSO concentration of 2%. Plates were incubated for 2 hours. A mixture of RBD and the AlphaScreen streptavidin donor and glutathione acceptor beads diluted in 25 mM Hepes, pH 7.4, 150 mM NaCl, 5 mM MgCl2, 0.01% TritonX-100 and 2% DMSO was then added at 10 ul/well and incubated for 60-90 minutes before the samples were read for emission at 570 nm after excitation of the donor beads at 680 nm. All incubations were performed at room temperature. The final top compound concentration was 50 μM with 1:3 titrations for 10-point dose response curves. Final assay conditions were 0.5 nM KRAS G12C, 0.75 nM RBD and 5 μg/ml each of AlphaScreen donor and acceptor beads. IC50s were determined using nonlinear regression fit of [inhibitor] vs. response (4 parameters). […]

T1 sequence (P01116 1-169 isoform P01116-2 G12C/C51S/C80L/C118S): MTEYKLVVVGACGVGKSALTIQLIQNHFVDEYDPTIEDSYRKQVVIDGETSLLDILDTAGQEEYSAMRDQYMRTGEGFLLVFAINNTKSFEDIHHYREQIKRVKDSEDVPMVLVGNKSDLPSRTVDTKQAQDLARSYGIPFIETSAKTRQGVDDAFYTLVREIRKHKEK

IC50 [nM]	SMILES
≥ 500	C=CC(=O)N1CC[C@@H](N(C)c2nc(OC[C@@]34CCCN3C[C@H](F)C4)nc3c(F)c(-c4ccc(O)cc4C4CC4)ncc23)C1 [Example 233]
10 to 100	C=CC(=O)N1CC[C@@H](N(C)c2nc(OC[C@@]34CCCN3C[C@H](F)C4)nc3c(F)c(-c4cccc(Cl)c4C4CC4)ncc23)C1 [Example 252]
≥ 500	C=CC(=O)N1CC[C@@H](N(C)c2nc(OC[C@@]34CCCN3C[C@H](F)C4)nc3c(F)c(-c4ccc(F)c(F)c4C4CC4)ncc23)C1 [Example 202]
≥ 500	Cc1cc(N)nc([C@H]2Cc3nc(OC[C@@]45CCCN4C[C@H](F)C5)nc(N(C)CC4CN(C(=O)/C=C/c5nc(C(C)(C)O)no5)C4)c3C[C@@H]2C)c1C(F)(F)F (single isomer, unassigned) [Example 155]
100 to 500	C=CC(=O)N1CC[C@@H](N(C)c2nc(OC[C@@]34CCCN3C[C@H](F)C4)nc3c(F)c(-c4cc(O)cc5nccnc45)ncc23)C1 [Example 192]
≥ 500	C#Cc1cccc2[nH]nc(-c3ncc4c(N(C)[C@@H]5CCN(C(=O)C=C)C5)nc(OC[C@@]56CCCN5C[C@H](F)C6)nc4c3F)c12 [Example 216]
≥ 500	C=CC(=O)N1CC[C@@H](N(C)c2nc(OC[C@@]34CCCN3C[C@H](F)C4)nc3c(F)c(-c4cc(F)cc(F)c4C4CC4)ncc23)C1 [Example 249]
≥ 500	C=CC(=O)N1CC[C@@H](N(C)c2nc(OC[C@@]34CCCN3C[C@H](F)C4)nc3c(F)c(-c4cc(F)cnc4C4CC4)ncc23)C1 [Example 259]
< 10	CN(C)C/C=C/C(=O)N1CC[C@@H](N(C)c2nc(OC[C@@]34CCCN3C[C@H](F)C4)nc3c(F)c(-c4cc(O)cc(Cl)c4C4CC4)ncc23)C1 [Example 197]
100 to 500	CO[C@@H]1CCN(C/C=C/C(=O)N2CC[C@@H](N(C)c3nc(OC[C@@]45CCCN4C[C@H](F)C5)nc4c(F)c(-c5cccc(Cl)c5C5CC5)ncc34)C2)C1 [Example 222]
< 10	C=CC(=O)N1CC[C@@H](N(C)c2nc(OC[C@@]34CCCN3C[C@H](F)C4)nc3c(F)c(-c4cc(O)cc(F)c4C4CC4)ncc23)C1 [Example 206]

Continued, compound first:

SMILES	IC50 [nM]
CN(c1nc(OCC23CCCN2CCC3)nc2c(F)c(-c3nc(N)cc4cccc(Cl)c34)ncc12)[C@@H]1CCN(C#N)C1 [Example 66, (R)-3-((7-(3-amino-8-chloroisoquinolin-1-yl)-8-fluoro-2-((hexahydro-1H-pyrrolizin-7a-yl)methoxy)pyrido[4,3-d]pyrimidin-4-yl)(methyl)amino)pyrrolidine-1-carbonitrile]	10 to 100
C=CC(=O)N1CC[C@@H](N(C)c2nc(OCC34CCCN3CCC4)nc3c2CC(C)C(c2nc(N)cc(C)c2C(F)(F)F)C3)C1 (stereo partly drawn) [Example 32, 1-((3R)-3-((7-(6-amino-4-methyl-3-(trifluoromethyl)pyridin-2-yl)-2-((hexahydro-1H-pyrrolizin-7a-yl)methoxy)-6-methyl-5,6,7,8-tetrahydroquinazolin-4-yl)(methyl)amino)pyrrolidin-1-yl)prop-2-en-1-one]	10 to 100
CN(C)CC#CC(=O)N1CC[C@@H](N(C)c2nc(OC[C@@]34CCCN3C[C@H](F)C4)nc3c(F)c(-c4nc(N)cc5cccc(F)c45)ncc23)C1 [Example 106]	< 10
CN(c1nc(OC[C@@]23CCCN2C[C@H](F)C3)nc2c(F)c(-c3nc(N)cc4cccc(F)c34)ncc12)[C@@H]1CCN(C(=O)/C=C/c2nc(C(C)(C)O)no2)C1 [Example 142]	< 10
Cc1cc(N)nc(-c2ncc3c(N(C)[C@@H]4C[C@@H](C)N(C#N)C4)nc(OC[C@@]45CCCN4C[C@H](F)C5)nc3c2F)c1C(F)(F)F (single isomer, unassigned) [Example 40]	10 to 100
CC(C)c1noc(/C=C/C(=O)N2CC[C@@H](N(C)c3nc(OC[C@@]45CCCN4C[C@H](F)C5)nc4c(F)c(-c5nc(N)ccc5C(F)(F)F)ncc34)C2)n1 [Example 47, (E)-1-((R)-3-((7-(6-amino-3-(trifluoromethyl)pyridin-2-yl)-8-fluoro-2-(((2R,7aS)-2-fluorotetrahydro-1H-pyrrolizin-7a(5H)-yl)methoxy)pyrido[4,3-d]pyrimidin-4-yl)(methyl)amino)pyrrolidin-1-yl)-3-(3-isopropyl-1,2,4-oxadiazol-5-yl)prop-2-en-1-one]	10 to 100
C=CC(=O)N1CC[C@@H](N(C)c2nc(OC[C@@]34CCCN3C[C@H](F)C4)nc3c(F)c(-c4cc(O)cc(Cl)c4C4CC4)ncc23)C1 [Example 12, 1-((R)-3-((7-(3-chloro-2-cyclopropyl-5-hydroxyphenyl)-8-fluoro-2-(((2R,7aS)-2-fluorotetrahydro-1H-pyrrolizin-7a(5H)-yl)methoxy)pyrido[4,3-d]pyrimidin-4-yl)(methyl)amino)pyrrolidin-1-yl)prop-2-en-1-one]	< 10
Cc1cc(N)nc(-c2ncc3c(N(C)CC4CN(C(=O)/C=C/c5nc(C(C)(C)O)no5)C4)nc(OC[C@@]45CCCN4C[C@H](F)C5)nc3c2F)c1C(F)(F)F [Example 97]	10 to 100
C=CC(=O)N1CC[C@@H](N(C)c2nc(OCC34CCCN3CCC4)nc3c(F)c(-c4nc(N)cc5cccc(F)c45)ncc23)C1 [Example 75, (R)-1-(3-((7-(3-amino-8-fluoroisoquinolin-1-yl)-8-fluoro-2-((hexahydro-1H-pyrrolizin-7a-yl)methoxy)pyrido[4,3-d]pyrimidin-4-yl)(methyl)amino)pyrrolidin-1-yl)prop-2-en-1-one]	100 to 500
C=CC(=O)N1CC[C@@H](N(C)c2nc(OCC34CCCN3CCC4)nc3c2C[C@H](C)[C@@H](c2nc(N)cc(C)c2C(F)(F)F)C3)C1 [Example 148, 1-((R)-3-(((6S,7S)-7-(6-amino-4-methyl-3-(trifluoromethyl)pyridin-2-yl)-6-methyl-2-((tetrahydro-1H-pyrrolizin-7a(5H)-yl)methoxy)-5,6,7,8-tetrahydroquinazolin-4-yl)(methyl)amino)pyrrolidin-1-yl)prop-2-en-1-one]	100 to 500
Cc1cc(N)nc(-c2ncc3c(N(C)[C@@H]4CCN(C(=O)/C=C/[C@@H]5CCN5C)C4)nc(OC[C@@]45CCCN4C[C@H](F)C5)nc3c2F)c1C(F)(F)F (single isomer, unassigned) [Example 27]	< 10
C=CC(=O)N1CC(CN(C)c2nc(OC[C@@]34CCCN3C[C@H](F)C4)nc3c2C[C@H](C)[C@@H](c2nc(N)cc(C)c2C(F)(F)F)C3)C1 [Example 137, 1-(3-((((6S,7S)-7-(6-amino-4-methyl-3-(trifluoromethyl)pyridin-2-yl)-2-(((2R,7aS)-2-fluorotetrahydro-1H-pyrrolizin-7a(5H)-yl)methoxy)-6-methyl-5,6,7,8-tetrahydroquinazolin-4-yl)(methyl)amino)methyl)azetidin-1-yl)prop-2-en-1-one]	≥ 500
Cc1nsc(/C=C/C(=O)N2CC(CN(C)c3nc(OC[C@@]45CCCN4C[C@H](F)C5)nc4c(F)c(-c5nc(N)cc(C)c5C(F)(F)F)ncc34)C2)n1 [Example 4, (E)-1-(3-(((7-(6-amino-4-methyl-3-(trifluoromethyl)pyridin-2-yl)-8-fluoro-2-(((2R,7aS)-2-fluorohexahydro-1H-pyrrolizin-7a-yl)methoxy)pyrido[4,3-d]pyrimidin-4-yl)(methyl)amino)methyl)azetidin-1-yl)-3-(3-methyl-1,2,4-thiadiazol-5-yl)prop-2-en-1-one]	10 to 100
C=CC(=O)N1CC(CN(C)c2nc(OC[C@@]34CCCN3C[C@H](F)C4)nc3c(F)c(-c4nc(N)cc(C)c4C4CC4)ncc23)C1 [Example 133, 1-(3-(((7-(6-amino-3-cyclopropyl-4-methylpyridin-2-yl)-8-fluoro-2-(((2R,7aS)-2-fluorotetrahydro-1H-pyrrolizin-7a(5H)-yl)methoxy)pyrido[4,3-d]pyrimidin-4-yl)(methyl)amino)methyl)azetidin-1-yl)prop-2-en-1-one]	≥ 500
CN1CC[C@H]1/C=C/C(=O)N1CC[C@@H](N(C)c2nc(OC[C@@]34CCCN3C[C@H](F)C4)nc3c(F)c(-c4nc(N)cc5cccc(F)c45)ncc23)C1 [Example 135]	100 to 500
Cc1cc(N)nc(-c2ncc3c(N4CCN(C#N)CC4)nc(OC[C@@]45CCCN4C[C@H](F)C5)nc3c2F)c1C(F)(F)F [Example 49, 4-(7-(6-amino-4-methyl-3-(trifluoromethyl)pyridin-2-yl)-8-fluoro-2-(((2R,7aS)-2-fluorohexahydro-1H-pyrrolizin-7a-yl)methoxy)pyrido[4,3-d]pyrimidin-4-yl)piperazine-1-carbonitrile]	100 to 500
